In article PMC9402538, “Rational design of a sensitivity-enhanced tracer for discovering efficient APC–Asef inhibitors” (Nature Communications, 2022):
Like-named read-outs stand apart in the source and are kept apart here. Where a SMILES comes first, the peptide text is derived from it. [ ]: non-standard residue; d: D form. The star is where a group is joined. Bpa = N[C@@H](Cc1ccc(C(=O)c2ccccc2)cc1)C(=O)O; 2Furoyl = O=C(c1ccco1)*; X1 = CSc1nccc(C(=O)*)n1; Bz = O=C(c1ccccc1)*

Biological target: T1, APC (Homo sapiens, UniProt P25054)
T1 sequence (P25054 303-739): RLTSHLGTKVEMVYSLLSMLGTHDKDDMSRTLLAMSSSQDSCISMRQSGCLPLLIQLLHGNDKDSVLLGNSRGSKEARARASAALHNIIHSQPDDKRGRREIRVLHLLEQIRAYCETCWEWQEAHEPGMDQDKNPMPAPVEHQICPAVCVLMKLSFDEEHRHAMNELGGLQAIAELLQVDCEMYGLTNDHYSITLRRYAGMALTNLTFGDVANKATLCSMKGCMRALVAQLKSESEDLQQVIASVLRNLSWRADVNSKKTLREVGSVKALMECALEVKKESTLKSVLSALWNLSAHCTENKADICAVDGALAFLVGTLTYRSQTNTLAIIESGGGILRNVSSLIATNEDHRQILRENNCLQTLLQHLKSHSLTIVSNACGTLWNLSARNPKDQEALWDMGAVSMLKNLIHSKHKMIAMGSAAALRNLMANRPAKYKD
Assay: FP competitive assay using tracer 1
Type: binding
Description: In our previous study, we established an FP assay for screening APC–Asef inhibitors using FITC-labeled tracer 1 (Ac–^176[…][FITC]^195–NH2)[16]. […]. However, their Kd values measured by isothermal titration calorimetry (ITC) actually vary up to more than 20 times[16],[17]. […].
FITC-labeled tracer peptides were obtained from Changzhou Kanglong Biotech Ltd. (Changzhou, Jiangsu, China). […]. The FP signal changes upon tracer binding were measured after 1.5 h of incubation using a Synergy neo microplate reader (BioTek Instruments, Inc.) and plotted against the protein concentration. The corresponding EC50 values were generated by fitting the curves with a nonlinear regression model. […]. To make a working solution, APC (303–739) was diluted in FP buffer (50 mM HEPES, pH 7.5, 300 mM NaCl, 1 mM EDTA, 1 mM DTT). […] The FP signals were measured after 1.5 h of incubation at room temperature using a Synergy neo microplate reader. Three controls were included on each plate, i.e., blank (without protein and tracer), 100% inhibition (free tracer only), and 0% inhibition (protein/tracer complex only) controls. All experiments were performed in triplicate. The IC50 values of peptides were calculated by nonlinear regression analysis using GraphPad Prism 7.0 software.

Row | IC50 (Supplementary Table 4, read-out: IC50, Tracer 1) [nM] | SMILES | IC50 [nM]
1 | 570 ± 120 | CSc1nccc(C(=O)N[C@@H](C)C(=O)NCC(=O)N[C@@H](CCC(=O)O)C(=O)N[C@@H](CO)C(=O)N[C@@H](CC(C)C)C(=O)N[C@@H](Cc2ccc(O)cc2)C(=O)N[C@@H](CCC(=O)O)C(N)=O)n1 [MAI-456] (X1-AGESLYE-NH2) | –
2 | – | CC(C)C[C@H](NC(=O)[C@H](CO)NC(=O)[C@H](CCC(=O)O)NC(=O)CNC(=O)[C@H](C)NC(=O)c1ccco1)C(=O)N[C@@H](Cc1ccc(O)cc1)C(=O)N[C@@H](Cc1ccc(C(=O)c2ccccc2)cc1)C(N)=O [MAI-454] (2Furoyl-AGESLY[Bpa]-NH2) | 480 ± 150
3 | – | CC(C)C[C@H](NC(=O)[C@H](CO)NC(=O)[C@H](CCC(=O)O)NC(=O)CNC(=O)[C@H](C)NC(=O)c1ccccc1)C(=O)N[C@@H](Cc1ccc(O)cc1)C(=O)N[C@H](CCC(=O)O)C(N)=O [MAI-465] (Bz-AGESLY[dE]-NH2) | 750 ± 150
4 | – | CC(C)C[C@H](NC(=O)[C@H](CO)NC(=O)[C@H](CCC(=O)O)NC(=O)CNC(=O)[C@H](C)NC(=O)c1ccccc1)C(=O)N[C@@H](Cc1ccc(O)cc1)C(=O)N[C@@H](Cc1ccc(C(=O)c2ccccc2)cc1)C(N)=O [MAI-457] (Bz-AGESLY[Bpa]-NH2) | 590 ± 200
